Source: patent publication US20060210479A1 (Dow Global Technologies Inc., priority 2004, published 2006)

How the values were obtained:
[1] = system: etoposide-induced (apoptotic) HEK293 cells; assay: Permeability of chelates to apoptotic cells, fluorescence of fractions; format: cell-based, human; details: for Fluorescence/mg Cytoplasm / Fluorescence/mg Membrane: HEK293 Apoptotic (etoposide 20 μM, 24 hours), 1 mM chelate, 2 hours; for differential fluorescence, cytoplasm versus membrane fractions: etoposide-induced HEK293 cells
Description: (§1) The human kidney transformed HEK293 cells (obtained from the ATCC) were grown in Eagle's Minimum Essential Medium (EMEM) supplemented with 10% (v/v) heat-inactivated fetal bovine serum, sodium pyruvate, nonessential amino acids and antibiotics in a humidified 5% CO2 atmosphere at 37° C. Medium and supplements were purchased from Gibco bRL (Grand Island, N.Y.). Etoposide was obtained from Sigma (St. Louis, Mo.) and prepared as 20 mM solution in dimethyl sulfoxide (DMSO). For treatments, etoposide was applied to the HEK293 cultures at 1:1000 dilution (final concentration of 20 μM) after cell became 75% confluent. As a control, cells were fed with medium containing 0.1% DMSO in the absence of etoposide. After treatment with etoposide, cells were incubated in a humidified 5% CO2 at 37° C. for 24 hours. HEK293 cells were collected by removing treatment medium and washed 2 times with 10 mM HEPES buffer. Final cell pellets were resuspended in a small amount of HEPES and stored at 4° C. for further study.
(§2) Cells were grown to confluence in T-150 flasks (about 2×10^6 cells). […] After treatment, the chelate or analogue supernatant was discarded and the cells were rinsed three times at room temperature with 10 mM HEPES. Cells were then removed from the flask by manual scraping. Cells were transferred to a 50-mL conical tube and centrifuged (400×g) for 5 minutes and the test material removed. Remaining cells were rinsed twice with cold 10 mM HEPES. Cells were used in cell binding assays.

[2] = system: HEK293 cells, normal (non-induced); assay: Permeability of chelates to HEK293 cells, fluorescence of fractions; format: cell-based, human; details: for Fluorescence/mg Cytoplasm / Fluorescence/mg Membrane: HEK293 Normal, 1 mM chelate, 2 hours; for differential fluorescence, cytoplasm versus membrane fractions: normal HEK293 cells
Description: as §1, §2

Caco-2 cell line = assay: Chelate permeability: fluorescence of cytoplasm and membrane fractions; format: cell-based, human; details: 1 mM chelate, 2 h
[3] = system: cancer cells (LNCaP, Caco-2, T84); assay: Chelate permeability and specificity, cancer cells versus normal cells (summary); format: cell-based, human; details: for permeability to cell membranes: cancer cells
T84 cell line = assay: Chelate permeability: fluorescence of cytoplasm and membrane fractions; format: cell-based, human; details: 1 mM chelate, 2 h
LNCaP cell line = assay: as above; format: cell-based, human; details: 1 mM chelate, 2 h
[4] = system: PZ-HPV-7 normal cell line; assay: as above; format: cell-based; details: PZ-HVP-7; 1 mM chelate, 2 h; Table 4
RBL-2H3 cell line = assay: as above; format: cell-based, rat; details: 1 mM chelate, 2 h, Table 4
Description: Tb-PCTMB (Tb(III) 3,6,9-tris(methylene phosphonic acid n-butyl ester)-3,6,9,15-tetraazabicyclo[9.3.1]pentadeca-1(15),11,13-triene) was tested for permeability to abnormal and disease-state cells.
RBL-2H3 is a rat basophilic leukemia cell line. These cells were grown in Iscove's Medium supplemented with 2 mM L-glutamnine, penicillin/streptomycin (100 IU/mL, 100 μg/mL) and 10% FBS. Cells were maintained at 5% CO2 and 95% humidity. PZ-HPV-7 cell line was derived from epithelial cells cultured from normal prostate tissue. They were grown in Keratinocyte-Serum Free Medium with human recombinant EGF and bovine pituitary extract supplemented with 50 μg/mL gentamicin and penicillin/streptomycin (100 IU/mL, 100 μg/mL). All media and supplements were purchased from Gibco BRL (Grand Island, N.Y., USA). All cell lines were obtained from ATCC and were maintained at 37° C., 5% CO2 and 95% humidity.
Cells were grown to confluence in T-150 flasks (about 2×10^6 cells). […] Cells were then removed from the flask by manual scraping. Cells were transferred to a 50-mL conical tube and centrifuged (400×g) for 5 minutes and the test material removed.
Cells were grown as described herein (Example 1). Cells were grown to confluence in T-150 flask (about 2×10^6 cells). […] Cells were then removed from the flask by manual scraping. Cells were transferred to a 50-mL conical tube and centrifuged (400×g) for 5 minutes and the test material removed.
Furthermore, one analogue, QCTMP (FIG. 26), having lesser lipophilic character (a free phosphonic acid moiety) was evaluated. […] In this study, the cytoplasm and membrane fractions were extracted by Mem-PER Eukaryotic Membrane Protein Extraction Reagent Kit as described by the manufacturers (Pierce Biotechnology, Rockford, Ill.) and analyzed by a Fluor-S Multilmager.

SMILES | Fluorescence/mg Cytoplasm [1] | Fluorescence/mg Membrane [1] | differential fluorescence, cytoplasm versus membrane fractions [1] | Fluorescence/mg Cytoplasm [2] | Fluorescence/mg Membrane [2] | differential fluorescence, cytoplasm versus membrane fractions [2] | Fluorescence/mg Cytoplasm (Caco-2 cell line; Table 1) | Fluorescence/mg Membrane (Caco-2 cell line; Table 1) | specificity or selectivity for cancer cells versus normal cells [3] | permeability to cell membranes [3] | Fluorescence/mg Cytoplasm (T84 cell line; Table 1) | Fluorescence/mg Membrane (T84 cell line; Table 1) | Fluorescence/mg Cytoplasm (LNCaP cell line; Table 1) | Fluorescence/mg Membrane (LNCaP cell line; Table 1) | also measured
COP(=O)([O-])CN1CCN(CP(=O)([O-])OC)Cc2cccc(n2)CN(CP(=O)([O-])OC)CC1.[Tb+3] [Tb-PCTMM] | 656 | 962 | did not show any significant differential fluorescence | 682 | 679 | did not show any significant differential fluorescence | 357.7 | 388.9 | did not show any specificity or selectivity | no permeability | 328.3 | 358.7 | 344.5 | 379.5 | 
Cc1ccc2nc(CN3CCN(CP(=O)([O-])O)CCN(CP(=O)([O-])O)CCN(CP(=O)([O-])O)CC3)ccc2c1.[Eu+3] [Eu-QCTMP] | 1450 | 1800 | did not show any significant differential fluorescence | 1732 | 1738 | did not show any significant differential fluorescence |  |  | did not show any specificity or selectivity | did not appear to be permeable |  |  |  |  | Fluorescence/mg Cytoplasm (Caco-2 cell line; Table 4): 2300; Fluorescence/mg Membrane (Caco-2 cell line; Table 4): 2314; Fluorescence/mg Cytoplasm (T84 cell line; Table 4): 2230; Fluorescence/mg Membrane (T84 cell line; Table 4): 2259; Fluorescence/mg Cytoplasm [4]: 2276; Fluorescence/mg Membrane [4]: 2271; Fluorescence/mg Cytoplasm (RBL-2H3 cell line): 2311; Fluorescence/mg Membrane (RBL-2H3 cell line): 2311; Fluorescence/mg Cytoplasm (LNCaP cell line; Table 4): 2287; Fluorescence/mg Membrane (LNCaP cell line; Table 4): 2301
O=C([O-])CN1CCN(CC(=O)[O-])Cc2cccc(n2)CN(CC(=O)[O-])CC1.[Tb+3] [Tb-PCTA] | 652 | 678 | did not show any significant differential fluorescence | 686 | 685 | did not show any significant differential fluorescence | 366.3 | 362.8 | did not show any specificity or selectivity | no permeability | 333.4 | 329.1 | 368.8 | 362.1 | 
